# Reference: patent US5512478A, “Genes and enzymes involved in the microbial degradation of pentachlorophenol” (Idaho Research Foundation, Inc., priority 1994, dated 1996)
# Like-named read-outs stand apart in the source and are kept apart here.
# Columns and labels:
# PcpB [1] = biological target: T1, PcpB (Sphingobium chlorophenolicum, UniProt P42535); test: Substrate disappearance in the presence of PcpB (substrate range); format: biochemical, Flavobacterium sp. Strain ATCC 39723; conditions: for (%) Relative Activity (substrate disappearance in the presence of PcpB): 10 nmoles substrate, 40 nmoles NADPH, PcpB 500 μg/ml, 80 mM potassium phosphate pH 7.5, 0.5% Tween 20, 23° C., PCP assumed 100%; for End Products of PcpB reaction: HPLC or GC/MS analysis
# T1 construct: endogenous in cells; host or cells: Flavobacterium sp; Strain ATCC 39723, PCP-induced; enzyme purified in house from the native bacterium
# T1 sequence (P42535 2-538): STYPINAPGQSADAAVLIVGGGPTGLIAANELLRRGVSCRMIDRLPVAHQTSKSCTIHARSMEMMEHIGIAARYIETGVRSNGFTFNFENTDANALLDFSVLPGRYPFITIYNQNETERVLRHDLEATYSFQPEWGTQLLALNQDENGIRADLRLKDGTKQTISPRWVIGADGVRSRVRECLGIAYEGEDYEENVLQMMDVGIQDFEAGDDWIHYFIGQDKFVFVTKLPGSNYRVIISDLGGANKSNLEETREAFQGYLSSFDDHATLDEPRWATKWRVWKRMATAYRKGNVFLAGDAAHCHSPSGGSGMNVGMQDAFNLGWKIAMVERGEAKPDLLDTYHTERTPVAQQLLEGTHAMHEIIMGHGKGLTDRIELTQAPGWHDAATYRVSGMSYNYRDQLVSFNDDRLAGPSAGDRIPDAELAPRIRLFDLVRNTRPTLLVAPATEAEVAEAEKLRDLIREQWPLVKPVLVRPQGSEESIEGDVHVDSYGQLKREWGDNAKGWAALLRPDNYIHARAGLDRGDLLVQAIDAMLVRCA
# Method: A stock solution of PCP (concentration, 37.6 mM) was prepared in 0.2M NaOH and stored in the dark at room temperature. Stock solutions of all other halogenated aromatic compounds (concentration, 20 mM) were prepared in absolute ethanol and stored at 4° C. in the dark. The NADPH solution of 10 mM was freshly prepared in 1 mM dithiothreitol and 1 mM Tris base (pH 13).
# PcpB was purified as described above. Enzyme reactions were conducted in 80 mM potassium phosphate buffer (pH 7.5) with 0.5% Tween 20 at 23° C. The enzyme concentration was 500 μg/ml in all reactions.
# All of the aromatic substrates and the corresponding enzyme product (aromatic portion) were monitored by reverse phase high-performance liquid chromatography (HPLC) analysis as described above for PCP and TeCH analysis, except that the absorptions at 285, 300, and 310 nm were recorded by using a Waters 490 E programmable multiwavelength UV detector. Gas chromatography/mass spectrometry (GC/MS) analysis was done as previously described (Topp and Akhtar, 1990).
# I^- was measured by the Leuco crystal violet assay described above. NO2 was colorimetrically measured using the N-(1-naphthyl) ethylenediamine dihydrochloride-sulfanilamide reagent method (American Public Health Association, 17th Ed., 1989). NH3 was colorimetrically measured by Nesslerization method (American Public Health Association, 17th Ed., 1989). CN was measured by the colorimetric method of Nagashima (1984). NH2 OH was measured by the method of Magee and Burris (1954).
# ^a All enzyme reactions were conducted in a reaction mix volume of 10
# μl, containing 10 nmoles of substrate, 40 nmoles of NADPH. The
# substrate depletion and product production were measured by HPLC or GC/MS
# analysis. Relative enzyme activity for PCP was assumed to be 100%; the
# relative enzyme activities for other compounds were compared with that fo
# PcpB [2] = biological target: T1, PcpB; conditions: GC/MS; cited from earlier work
# PcpB [3] = biological target: T1, PcpB; test: PCP degradation as an assay of PcpB activity (HPLC); format: biochemical, Flavobacterium sp. Strain ATCC 39723
# Method: PcpB activity was assayed by measuring the depletion of PCP and/or the production of TECH. […] MgSO4 was later determined not to enhance the activity of the purified enzyme. Tween 20 was determined to facilitate reproducible quantitation of PCP by high-performance liquid chromatography (HPLC) analysis as described below. A 10 μl volume of reaction mixture was injected onto the HPLC column at 4 min. after the start of the reaction. One unit of enzyme activity was defined as the amount of enzyme that catalyzed the production of 1 μmol of TeCH or the consumption of 1 μmol of PCP per min under the assay conditions. The reaction rate was linear for about 5 min. with […] of the enzyme, and then the reaction rate decreased gradually over the next 15 min.
# PCP and TeCH were analyzed by HPLC (Waters, Milford, Mass.) on a Nova-Pak C18 column (3.9 by 150 mm) with an 11 mM H3 PO4 -acetonitrile gradient (acetonitrile concentrations 10 to 65% 5 min.! and 65% 10 min.!). Maximum absorption at 310, 320, and 330 nm was recorded by use of a Waters 490E programmable multiwavelength UV detector connected to a Maxima NEC computer workstation (Waters). The retention times of PCP and TeCH were 11.5 and 8.9 min., respectively. PCP and TeCH were quantified by comparing their peak areas with the peak areas of authentic standards. NADPH concentration in the reaction mixture was measured by HPLC on the Nova-Pak C18 column with an isocratic 50 mM KPi buffer (ph 8.0). Flavins were determined by HPLC on a μCarbohydrate analyzing column (3.9 by 300 mm) (Analytical Sciences Incorporated, Santa Clara, Calif.) with an isocratic solution of acetonitrile-distilled water (60:40, vol/vol). Protein purity was checked by HPLC on a Delta Pak C18 30 nm column (3.9 by 150 mm) with a water-acetonitrile gradient containing 0.1% trifluoroacetic acid (acetonitrile concentrations, 15% 1 min.!, 15 to 40% 1 min.!, 40% 2 min.!, 40 to 75% 8 min.!, 75 to 100% 1 min.!, 100% 7 min.!, 100 to 15% 1 min.!) at a flow rate of 1 ml/min. […]
# and incubated at room temperature for 4 min. before being analyzed by […]
# [4] = Stability of TeCH in the PcpB reaction mixture; format: physicochemical
# PcpC = biological target: T2, PcpC (Sphingobium chlorophenolicum, UniProt Q03520); format: biochemical, Flavobacterium sp. Strain ATCC 39723; conditions: 33 μg of purified enzyme per ml; GC-MS of ether extract
# T2 construct: endogenous in cells; host or cells: Flavobacterium sp; Strain ATCC 39723, PCP-induced; enzyme purified in house from the native bacterium
# T2 sequence (Q03520 2-248): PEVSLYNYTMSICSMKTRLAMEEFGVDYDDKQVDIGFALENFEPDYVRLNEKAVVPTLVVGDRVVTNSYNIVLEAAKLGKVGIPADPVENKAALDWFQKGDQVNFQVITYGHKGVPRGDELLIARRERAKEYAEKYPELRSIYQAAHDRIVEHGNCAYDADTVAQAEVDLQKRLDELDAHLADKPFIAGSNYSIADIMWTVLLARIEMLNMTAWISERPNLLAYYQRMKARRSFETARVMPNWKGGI
# Method: Enzymatic activity assay. The reaction mixture contained 50 mM KPi buffer (pH 7.4), 0.4% Tween 20 (Sigma), 100 μM of TeCH, and 1 mM ascorbic acid. All the reactions were incubated at 23° C. in an anaerobic chamber containing an atmosphere of 85% N2, 5% CO2, and 10% H2 (Coy Laboratory Products Inc., Ann Arbor, Mich.). The reactions were stopped by addition of an equal volume of acetonitrile to the reaction mixture. TeCH stock solution (20 mM) was prepared in absolute ethanol. NADPH and NADH stock solutions (10 mM) were freshly prepared in 1 mM Tris buffer (pH 13) with 1 mM dithiothreitol. […]
# Analytical method. […] TeCH, TrCH and DiCH were analyzed by HPLC on a Nova-Pak C-18 column (3.9 by 150 mm) (Waters, Milford, Mass.) with an 11 mM H3 PO4 -acetonitrile gradient as described above. Maximum absorption at 285, 300, 310 nm was recorded by using a Waters 490E programmable multiwave-length UV detector connected to a Maxima NEC computer workstation (Waters). […] TeCH and DiCH in the reaction mixtures were identified and quantified by comparison of their retention time and peak areas with that of authentic standards, respectively. TrCH was extracted with diethyl ether from the reaction mixture and analyzed by gas chromatography/mass spectrometry (GC/MS) as described by Topp and Akhtar (1990). […] GSH and the oxidized form of glutathione (GS-SG) were detected by the enzymatic method of Tietze (1969).
Compound,(%) Relative Activity (substrate disappearance in the presence of PcpB) (PcpB [1]) [%],End Products of PcpB reaction (PcpB [1]),also measured
"Oc1ccc(Cl)c(Cl)c1Cl [2,3,4-Trichlorophenol]",29,–,–
"Oc1c(Cl)c(Cl)cc(Cl)c1Cl [2,3,5,6-Tetrachlorophenol]",1212,TeCH,–
"Oc1c(Cl)ccc(Cl)c1Cl [2,3,6-Trichlorophenol, 2,3,6-trichlorophenol]",302,"2,3,6-trichloro-p-hydroquinone",–
"Oc1cccc(Cl)c1Cl [2,3-Dichlorophenol]",24,–,–
"Oc1c(Br)cc(Br)cc1Br [2,4,6-Tribromophenol]",35,–,–
"Oc1c(Cl)cc(Cl)cc1Cl [2,4,6-Trichlorophenol, 2,4,6-trichlorophenol]",29,"2,6-dichloro-p-hydroquinone",–
"Oc1c(I)cc(I)cc1I [2,4,6-Triiodophenol]",172,"2,6-diiodo-p-hydroquinone",–
"O=[N+]([O-])c1cc(Br)c(O)c(Br)c1 [2,6-Dibromo-4-nitrophenol]",62,–,–
"Oc1c(Br)cccc1Br [2,6-Dibromophenol]",605,–,–
"Oc1c(Cl)cccc1Cl [2,6-Dichlorophenol, 2,6-dichlorophenol]",344,"2,6-dichloro-p-hydroquinone",–
"Oc1cc(Cl)c(Cl)c(Cl)c1 [3,4,5-Trichlorophenol, 3,4,5trichlorophenol]",0,None,–
"N#Cc1cc(Br)c(O)c(Br)c1 [3,5-Dibromo-4-hydroxybenzonitrile]",591,–,"End Products of PcpB reaction (from Topp et al.) (PcpB [2]): 2,6-dibromo-p-hydroquinone"
"Oc1cc(Cl)cc(Cl)c1 [3,5-Dichlorophenol, 3,5dichlorophenol]",0,None,–
"N#Cc1cc(I)c(O)c(I)c1 [3,5-Diiodo-4-hydroxybenzonitrile]",835,–,"End Products of PcpB reaction (PcpB [1]; listed as 3,5-diiodo-4-hydroxylbenzonitrile): DIHQ"
"Nc1cc(Cl)c(O)c(Cl)c1 [4-Amino-2,6-dichlorophenol]",93,–,–
O=C(O)CN(CCN(CC(=O)O)CC(=O)O)CC(=O)O [EDTA],–,–,influence of additive on activity of purified PcpB (PcpB [3]): did not influence the enzymatic activity
O=S(=O)([O-])[O-].[Mg+2] [MgSO4],–,–,influence of additive on activity of purified PcpB (PcpB [3]; addition to 5 mM): did not influence the enzymatic activity
Oc1c(Cl)c(Cl)c(Cl)c(Cl)c1Cl [Pentachlorophenol],100,–,"Conversion of PCP to TeCH by purified PcpB (PcpB [3]; 37 μM PCP, 100 mM KPi buffer (pH 7.0), 100 μM NADPH, within 20 min.): completely converted; End Products of PcpB reaction (PcpB [1]; listed as PCP): TeCH"
Oc1c(F)c(F)c(F)c(F)c1F [Pentafluorophenol],47,–,–
"Oc1c(Cl)c(Cl)c(O)c(Cl)c1Cl [TeCH, 2,3,5,6-tetrachloro-p-hydroquinone]",–,–,stability of TeCH ([4]; optimal pH conditions (7.5 to 9.0)): highly unstable; stability of TeCH ([4]; pH lower than 7.5): relatively stable; product of TeCH conversion by TeCH reductive dehalogenase (PcpC): DiCH
Oc1ccccc1 [phenol],–,–,Extent of oxidation/degradation by the enzyme (PcpB [1]): not degraded
